Measurements taken from patent US20160287741A1, “METASTABLE SILVER NANOPARTICLE COMPOSITES WITH COLOR INDICATING PROPERTIES” (SIENNA LABS, INC., priority 2013, published 2016).

Experiments:
[1] = Gelled deodorant stick blends, silica stabilized vs non-stabilized nanoplates vs silver salt: settling, peak resonance shift, hue; format: physicochemical; settings: Table A blends
Procedure: Gelled sticks with silver nanoplates were prepared by blending water, dipropylene glycol and propylene glycol components, heating the resulting blends to 85° C., adding the poloxamine to the heated blend and mixing until clear, adding the sodium stearate to the heated blends and again mixing until clear, cooling the blends to 75° C. and adding the 2-amino-2-methylpropan-1-ol with agitation, cooling the blends to 71-73° C., and mixing in the remaining ingredients. Non-stabilized silver nanoplates and silica stabilized silver nanoplates were prepared according to the methods in example 1 and 2 respectively and added into separate blends. A silver salt was added to a separate blend. The blends were then allowed to cool to room temperature and gel.
A 100 microliter aliquot of from non-stabilized and silica stabilized silver blend solutions was added to a 96 well plate and allowed to cool to room temperature and gel.

[2] = Gelled deodorant stick blends, PVP nanoplates with or without borate vs silver salt: settling, peak resonance shift, hue; format: physicochemical; settings: Table B blends
Procedure: Gelled sticks with silver nanoplates were prepared by blending water, dipropylene glycol and propylene glycol components, heating the resulting blends to 85° C., adding the poloxamine to the heated blend and mixing until clear, adding the sodium stearate to the heated blends and again mixing until clear, cooling the blends to 75° C. and adding the 2-amino-2-methylpropan-1-ol with agitation, cooling the blends to 71-73° C., and then mixing in the remaining ingredients. PVP and borate stabilized silver nanoplates were prepared according to the methods in example 1 with the addition of PVP and borate into the mixture after synthesis. In one blend was added borate prior to adding silver nanoplates, in another blend borate was not added. A silver salt was added to a separate blend with no borate. The blends were then allowed to cool to room temperature and gel.
A 100 microliter aliquot from non-stabilized and silica stabilized silver blend solutions was added to a 96 well plate and allowed to cool to room temperature and gel.

[3] = EPA, United States; cited from earlier work
[4] = EPA Reference Dose for Chronic Oral Exposure (RfD) for silver and intravenous conversion; design: species or system human population
Text: We estimate less than half of the silver has diffused from the silicone into the IV fluid over 7 days based on the silver nanoplate plasmonic peak wavelength, which corresponds directly with the diameter decrease in the etched silver nanoplates. Even if all of the silver had diffused from the silicone into the IV fluid during 7 days, this would correspond to a daily body absorption of 1.6 micrograms per day. In the United States, the EPA has set a Reference Dose for Chronic Oral Exposure (RfD) of 5 micgrams per Kg per day for silver. RfD is the daily exposure to the human population (including sensitive subgroups) that is likely to be without an appreciable risk of deleterious effects during a lifetime. Oral dose is estimated based on a conversion of 4% absorption of dietary silver into the body. Thus, an intravenous RfD would be approximately 0.2 micrograms per day of silver. For a 70 Kg person, this corresponds to 14 micrograms per day.

Compound	settling in gelled deodorant blend [1]	settling in gelled deodorant blend [2]	Reference Dose for Chronic Oral Exposure (RfD) [3] [micgrams per Kg per day]	intravenous RfD for a 70 Kg person ([4]; 70 Kg person) [micrograms per day]	intravenous RfD ([4]; conversion of 4% absorption of dietary silver)
[Cl][Ag] [silver chloride, Silver Chloride]	exhibited settling	exhibited settling	–	–	–
[Ag] [silver]	–	–	5	14	approximately 0.2 micrograms per day
